Laboratory results published in article PMC6892276 (European Journal of Pharmaceutical Sciences, 2019).

Key:
[1] = Protein binding in HLM (Rapid Equilibrium Dialysis); type: in vitro ADME; details: human, liver microsomes, HLM 1 mg/ml, dialysis 4 h at 37 °C, read-out: fumic (fraction unbound in microsomes)
Procedure: (§1) Samples were removed, matrix matched and quenched with methanol containing internal standard; further processing is as described in Section 2.6.
(§2) The fraction unbound (fu) in HLM/rCYP was calculated using Eq. (5).(5) fu=1/1+1/PARreceiver/PARdonor−1 where PAR = Peak Area Ratio of analyte/internal standard.

[2] = CLint in human liver microsomes; type: in vitro ADME; details: both sexes, mixed sex, 1 mg/ml, NADPH
Procedure: (§3) All incubations of subcellular fractions and recombinant enzymes were conducted at 37 °C and 800 rpm using a Hamilton Microlab Star liquid handling workstation (Hamilton Robotics (Bonaduz, Switzerland)).
(§4) Prior to initiation of the reaction by the addition of NADPH (final concentration 1 mM), an aliquot was removed from each incubation and quenched in ice cold methanol containing internal standard (referred to as T0). NADPH was subsequently added to this solution for matrix matching. The remaining reaction (with addition of NADPH) was allowed to proceed for 60 min. At 0.5, 5, 15, 30 and 60 min aliquots were sampled and quenched as above. Incubations were conducted in singlicate; control incubations (substituting PBS for NADPH) were conducted simultaneously.
(§5) For the purpose of CLint determination, samples were analysed using an Agilent 1290 Infinity ultra high-performance liquid chromatography (UHPLC) system coupled to an Agilent 6520 Quadrupole Time-of-flight mass spectrometer (Agilent Technologies, Stockport, UK). […]
(§6) In vitro data (parent compound LC-MS response) was fitted to a non-linear single exponential model using the software GraphPad Prism (v6.07, GraphPad Software, Inc., La Jolla, USA) to determine the elimination rate constant (k). CLint in hepatocytes and liver microsomes was calculated using Eqs. […]
(§7) Unbound CLint (CLint,u) was calculated using Eq. (6).(6) CLint,u=CLint/fu

[3] = CLint in mouse liver microsomes; type: in vitro ADME; details: ICR/CD-1, liver microsomes, female, 1 mg/ml, NADPH
Procedure: as §3, §4, §5, §6

[4] = Protein binding in rCYP (Rapid Equilibrium Dialysis); type: in vitro ADME; details: human, control rCYP 100 pmol/ml, dialysis 4 h at 37 °C, read-out: fuCYP (fraction unbound in rCYP)
Procedure: as §1, §2

[5] = tested on: rCYP3A4; experiment: Reaction phenotyping using recombinant CYP, CLint in rCYP3A4; type: in vitro ADME, human; details: scaled with ISEF 1.09 and CYP abundance 137 pmol P450/mg; corrected for fuCYP
Procedure: as §3
Recombinant CYP (100 pmol P450/ml) and control bactosome (at an equivalent protein concentration) were prepared in 100 mM KPB. […] The reaction was initiated by the addition of NADPH (final concentration 1 mM) and allowed to proceed for 20 min. At T0 (see Section 2.4.1), 0.5, 5, 10, 15 and 20 min, an aliquot was removed from each incubation and quenched in ice cold methanol containing internal standard.
CLint in rCYP was calculated using Eq. (3) and scaled to μl/min/mg microsomal protein using Eq. (4).(3) CLintμl/min/pmolP450=V·k/pmol protein (4) CLintμl/min/mgmicrosomal protein=CLintμl/min/pmolP450·ISEF·CYPabundance where ISEF is the Intersystem Extrapolation Factor and CYP abundance is amount of each CYP relative to microsomal protein. For rCYP3A4 an ISEF of 1.09 ([Certara, 2017]) and a CYP abundance of 137 pmol P450/mg microsomal protein ([Certara, 2017]) were used.
as §7

[6] = tested on: CYP2C9; parameters: method as in Bavetsias et al., 2012; details: ref Bavetsias et al., 2012; read-out: CYP2C9 inhibition IC50; cited from earlier work
[7] = tested on: CYP1A2; parameters: method as in Bavetsias et al., 2012; details: ref Bavetsias et al., 2012; read-out: CYP1A2 inhibition IC50; cited from earlier work
[8] = CLint in cryopreserved minipig hepatocyte suspensions; type: in vitro ADME; details: Gottingen
Procedure: Cells were stored in the vapour phase of liquid nitrogen and thawed as per the supplier's instructions (rapid thawing at 37 °C, followed by centrifugation at 50 ×g for 5 min in thawing medium). Hepatocytes were re-suspended in a small volume of incubation medium (WME buffered with HEPES (final concentration 24 mM) adjusted to pH 7.4). Cell density was estimated using a haemocytometer and light microscope and viability determined according to the trypan blue exclusion method; cells were subsequently diluted to the required concentration in incubation medium. […]
as §5, §6

[9] = tested on: MV4-11 xenograft; parameters: method as in Bavetsias et al., 2012; details: MV4-11 xenograft mouse model; ref Bavetsias et al., 2012; cited from earlier work
[10] = tested on: CYP2C19; parameters: method as in Bavetsias et al., 2012; details: ref Bavetsias et al., 2012; read-out: CYP2C19 inhibition IC50; cited from earlier work

## Cc1nn(C)cc1-c1nc2c(N3CCN(Cc4ccc(Cl)cc4)CC3)c(Cl)cnc2[nH]1 [CCT241736, 6-Chloro-7-(4-(4-chlorobenzyl)piperazin-1-yl)-2-(1,3-dimethyl-1Hpyrazol-4-yl)-3H-imidazo[4,5-b] pyridine]
[1]
  fraction unbound at 4 h, 1 μM: 0.0018
[2]
  microsomal CLint at 1 μM: 7.8 ± 1 µL/min/mg
[3]
  microsomal CLint at 1 μM: 53 ± 4.1 µL/min/mg
[4]
  fraction unbound at 4 h, 1 μM: 0.0094
[5]
  scaled CLint,u in rCYP3A4: 4078 μl/min/mg microsomal protein
[6]
  IC50: > 10 µM
[7]
  IC50: > 10 µM
[8]; pH 7.4, female
  hepatocyte CLint at 1 μM: 3.4 µL/min/1e6 cells
[8]; pH 7.4, male
  hepatocyte CLint at 1 μM: 7 µL/min/1e6 cells
[9]
  inhibition of tumour growth: strong inhibition of tumour growth
[10]
  IC50: > 10 µM
